Assay results as given in patent US12492173B2, “Herbicidal substituted N-tetrazolyl aryl carboxamides” (Bayer Aktiengesellschaft, priority 2019, dated 2025).

Key:
Type in all cases: in vivo
Matricaria inodora = assay: Pre-emergence herbicidal action, MATIN; conditions: dosage 320 g/ha; for herbicidal activity MATIN: scored visually after 3 weeks vs untreated controls (100% = plants have died)
Summary of the method: (§1)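 Seeds sown in sandy loam in pots and covered with soil; compounds formulated as WP or EC were sprayed onto the soil surface as aqueous suspension/emulsion at 600 to 800 l/ha water with 0.2% wetting agent. Greenhouse growth; visual damage scored after 3 weeks versus untreated controls (100% = plants died, 0% = like control).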

Polygonum convolvulus = assay: Pre-emergence herbicidal action, POLCO; conditions: dosage 320 g/ha; for herbicidal activity POLCO: scored visually after 3 weeks vs untreated controls (100% = plants have died)
Summary of the method: as §1

Viola tricolor = assay: Pre-emergence herbicidal action, VIOTR; conditions: dosage 320 g/ha; for herbicidal activity VIOTR: scored visually after 3 weeks vs untreated controls (100% = plants have died)
Summary of the method: as §1

Avena fatua = assay: Post-emergence herbicidal action, AVEFA; parameters: key: % herbicidal action vs untreated; 100 = plants died, 0 = like control
Summary of the method: (§2)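 Values are visual estimates of herbicidal action, from 0% (as untreated) to 100% (dead), made about 3 weeks after plants at one-leaf stage in sandy loam were sprayed with the formulated compound.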

Echinochloa crus-galli = assay: Post-emergence herbicidal action, ECHCG; parameters: key: % herbicidal action vs untreated; 100 = plants died, 0 = like control
Summary of the method: as §2

Setaria viridis = assay: Post-emergence herbicidal action, SETVI; parameters: key: % herbicidal action vs untreated; 100 = plants died, 0 = like control
Summary of the method: as §2

SMILES	herbicidal activity MATIN (Matricaria inodora) [%]	herbicidal activity POLCO (Polygonum convolvulus) [%]	herbicidal activity VIOTR (Viola tricolor) [%]	herbicidal action AVEFA (Avena fatua; post-emergence, dosage 80 g/ha) [%]	herbicidal action ECHCG (Echinochloa crus-galli; post-emergence, dosage 80 g/ha) [%]	herbicidal action SETVI (Setaria viridis; post-emergence, dosage 80 g/ha) [%]	herbicidal action MATIN (Matricaria inodora) [%]	herbicidal action POLCO (Polygonum convolvulus) [%]	herbicidal action VIOTR (Viola tricolor) [%]	herbicidal action AVEFA (Avena fatua; Dosage 80 g/ha)	herbicidal action ECHCG (Echinochloa crus-galli; Dosage 80 g/ha)	herbicidal action SETVI (Setaria viridis; Dosage 80 g/ha)
CCn1nnnc1NC(=O)c1ccc(C(F)(F)F)c(C[S+]([O-])CC)c1Br (stereo not drawn) [Example 2-384]	100	90	100	90	90	90						
CCn1nnnc1NC(=O)c1ccc(C(F)(F)F)c(CS(=O)(=O)CC)c1Br [Example 2-385]	100	100	100	90	90	90						
CCCn1nnnc1NC(=O)c1ccc(C(F)(F)F)c(CSCC)c1C [Example 3-86]							100	90	100	80	90	90
CCCn1nnnc1NC(=O)c1ccc(C(F)(F)F)c(C[S+](C)[O-])c1OC (stereo not drawn) [Example 3-135]							100	90	100	100	100	100
CCCn1nnnc1NC(=O)c1ccc(C(F)(F)F)c(C[S+](C)[O-])c1SC (stereo not drawn) [Example 3-162]	100	100	100	90	100	100						
CCCn1nnnc1NC(=O)c1ccc(C(F)(F)F)c(CS(C)(=O)=O)c1SC [Example 3-163]	100	80	100							90	90	90
CCCn1nnnc1NC(=O)c1ccc(C(F)(F)F)c(CS(C)(=O)=O)c1Cl [Example 3-298]	100	80	100							100	90	80
CCCn1nnnc1NC(=O)c1ccc(C(F)F)c(CS(C)(=O)=O)c1Cl [Example 3-322]	100	100	100							80	100	80
CCCn1nnnc1NC(=O)c1ccc(C(F)F)c(CSCC)c1Cl [Example 3-323]	100	100	100							90	100	100
CCCn1nnnc1NC(=O)c1ccc(C(F)F)c(CS(=O)(=O)CC)c1Cl [Example 3-325]	100	100	100							100	100	100
CCCn1nnnc1NC(=O)c1ccc(C(F)(F)F)c(C[S+]([O-])CC)c1Br (stereo not drawn) [Example 3-384]	100	80	100							90	90	100
